For this data set, the system named is Yucatan Micro Pig (YMP) skin. Briefly: Skin permeability test, fluorescently-labeled insulin in skin extract and receiver solution, vertical Franz type diffusion cell (Examples 8, 12, 14, 18). It counts as in vitro ADME. As for the experimental part: Yucatan Micro Pig (YMP) skin (by Charles River Laboratories Japan, Inc.) stored at −80° C. was thawed at room temperature (roughly 25° C.), and was then subjected to the fat removal (to have a skin thickness of roughly 2 mm). Thus, the YMP skin of roughly 2 cm square was prepared.
To a receiver phase of the vertical Franz type diffusion cell (effective area: 0.785 cm^2), 5.0 mL of phosphate buffered saline (PBS of pH 7.4, stirred at 500 rpm) was added, and the above-described YMP skin (temperature of PBS on skin surface: 32.5° C.) was set. […]
The skin was taken out after 24 hours, and washed with the extractant [solution of PBS, acetonitrile, and methanol mixed at 2:1:1 (v/v/v)]. […] The extracted solution thus obtained was filtered using a PTFE filter (0.20 μm), and then, the quantity of the fluorescently-labeled insulin in the solution was determined using the fluorescence spectrometer LS-55 (manufactured by PerkinElmer, Inc.) (each calculated as the average value of three tests). The fluorescence spectrometer measurement was made at an excitation wavelength of 495 nm and a measurement wavelength of 521 nm. […]
The skin was taken out after 24 hours, and washed with the extractant [solution of PBS, acetonitrile, and methanol mixed at 2:1:1 (v/v/v)]. […] The fluorescence spectrometer measurement was made at an excitation wavelength of 495 nm and a measurement wavelength of 521 nm. […]

In the case of polyoxyethylene lauryl ether, the “transdermal absorption enhancing effect of insulin” value is on record as “no transdermal absorption enhancing effect”.

These data come from patent US11771645B2, “Transdermally absorbable base material containing lipid peptide compound” (KYUSHU UNIVERSITY, priority 2015, dated 2023).
